Measurements taken from ChEMBL document CHEMBL5137117, “Cytotoxic Cyclotides from Anchietea pyrifolia, a South American Plant Species” (J Nat Prod, 2022).
Bridge positions count the residues as written; N and C are the ends. Peptide text beside a SMILES is read from it.

Experiments:
HCT-116 = assay: Cytotoxicity against human HCT-116 cells assessed as inhibition of cell growth measured after 72 hrs by MTT assay; type: functional, cell-based; settings: HCT-116, 72 h
[1] = Cytotoxicity against human HCT116-p53-null cells assessed as inhibition of cell growth measured after 72 hrs by MTT assay; type: functional, cell-based
MCF7 = assay: Cytotoxicity against human MCF7 cells assessed as inhibition of cell growth measured after 72 hrs by MTT assay; type: functional, cell-based; settings: MCF7, 72 h
[2] = Hemolytic activity in human red blood cells incubated for 2 hrs by microplate reader assay; type: toxicity, cell-based, Erythrocyte; settings: red blood cells (erythrocytes), read-out: HD50
[3] = Hemolytic activity in human red blood cells at 78 uM incubated for 2 hrs by microplate reader assay relative to control; type: toxicity, cell-based, Erythrocyte; settings: red blood cells (erythrocytes), read-out: Activity

Compound | IC50 (HCT-116) | IC50 [1] | IC50 (MCF7) | HC50 at 2 h [2] | hemolysis at 2 h, 78 µM [3]
CC[C@H](C)[C@@H]1NC(=O)[C@H](C)NC(=O)[C@H](CO)NC(=O)[C@H](CO)NC(=O)[C@H]([C@@H](C)CC)NC(=O)[C@@H]2CSSC[C@@H]3NC(=O)[C@H](C(C)C)NC(=O)[C@H](CCCCN)NC(=O)[C@H](CC(N)=O)NC(=O)[C@H](CCCCN)NC(=O)[C@@H]4CSSC[C@H](NC(=O)[C@H](CO)NC(=O)[C@H](CCC(=O)O)NC(=O)CNC(=O)[C@H](CSSC[C@H](NC(=O)CNC1=O)C(=O)N[C@@H](CO)C(=O)N4)NC(=O)[C@@H]1CCCN1C(=O)[C@H]([C@@H](C)CC)NC(=O)CNC(=O)[C@H](CC(N)=O)NC(=O)[C@H](CCCNC(=N)N)NC(=O)[C@H](Cc1ccc(O)cc1)NC3=O)C(=O)N[C@@H](C(C)C)C(=O)N[C@@H](Cc1c[nH]c3ccccc13)C(=O)N[C@@H]([C@@H](C)CC)C(=O)N1CCC[C@H]1C(=O)N2 (cyclo(AIGCSCKNKVCYRNGIPCGESCVWIPCISS); disulfide 4-18, 6-22, 11-27) | 1.4 µM | 2.1 µM | 7.1 µM | > 156 µM | –
CC[C@H](C)[C@@H]1NC(=O)[C@H](C)NC(=O)[C@H]([C@@H](C)O)NC(=O)[C@H](C(C)C)NC(=O)[C@H]([C@@H](C)O)NC(=O)[C@@H]2CSSC[C@@H]3NC(=O)[C@H](C(C)C)NC(=O)[C@H](CCCCN)NC(=O)[C@H](CO)NC(=O)[C@H](CCCCN)NC(=O)[C@@H]4CSSC[C@H](NC(=O)[C@H](CO)NC(=O)[C@H](CCC(=O)O)NC(=O)CNC(=O)[C@H](CSSC[C@H](NC(=O)CNC(=O)[C@H]([C@@H](C)CC)NC1=O)C(=O)N[C@@H](CO)C(=O)N4)NC(=O)[C@@H]1CCCN1C(=O)[C@H](CC(C)C)NC(=O)CNC(=O)[C@H](CC(N)=O)NC(=O)[C@H](CCCCN)NC(=O)[C@H](Cc1ccc(O)cc1)NC3=O)C(=O)N[C@@H](C(C)C)C(=O)N[C@@H](Cc1ccccc1)C(=O)N[C@@H](CC(C)C)C(=O)N1CCC[C@H]1C(=O)N2 (cyclo(AIIGCSCKSKVCYKNGLPCGESCVFLPCTVT); disulfide 5-19, 7-23, 12-28) | 1.1 µM | 1.3 µM | 5.8 µM | – | –
CC[C@H](C)[C@@H]1NC(=O)CNC(=O)[C@H](CO)NC(=O)[C@H]([C@@H](C)CC)NC(=O)[C@@H]2CSSC[C@@H]3NC(=O)[C@H](C(C)C)NC(=O)[C@H](CCCCN)NC(=O)[C@H](CC(N)=O)NC(=O)[C@H](CO)NC(=O)[C@@H]4CSSC[C@H](NC(=O)[C@H](CO)NC(=O)[C@H](CCC(=O)O)NC(=O)CNC(=O)[C@H](CSSC[C@H](NC(=O)CNC(=O)[C@H](CC(C)C)NC1=O)C(=O)N[C@@H](CO)C(=O)N4)NC(=O)[C@@H]1CCCN1C(=O)[C@H](C(C)C)NC(=O)[C@H](CO)NC(=O)CNC(=O)[C@H](CC(N)=O)NC(=O)[C@H](Cc1ccc(O)cc1)NC(=O)[C@H](Cc1ccc(O)cc1)NC3=O)C(=O)N[C@@H](C(C)C)C(=O)N[C@@H](Cc1c[nH]c3ccccc13)C(=O)N[C@@H]([C@@H](C)CC)C(=O)N1CCC[C@H]1C(=O)N2 (cyclo(CGESCVWIPCISGILGCSCSNKVCYYNGSVP); disulfide 1-17, 5-19, 10-24) | 2.3 µM | 2.6 µM | 5.1 µM | 22 µM | 87%
CC[C@H](C)[C@@H]1NC(=O)[C@H](C)NC(=O)[C@H](C)NC(=O)[C@H](CO)NC(=O)[C@H]([C@@H](C)CC)NC(=O)[C@@H]2CSSC[C@@H]3NC(=O)[C@H](C(C)C)NC(=O)[C@H](CCCCN)NC(=O)[C@H](CC(N)=O)NC(=O)[C@H](CCCCN)NC(=O)[C@@H]4CSSC[C@H](NC(=O)[C@H](CO)NC(=O)[C@H](CCC(=O)O)NC(=O)CNC(=O)[C@H](CSSC[C@H](NC(=O)CNC1=O)C(=O)N[C@@H](CO)C(=O)N4)NC(=O)[C@@H]1CCCN1C(=O)[C@H]([C@@H](C)CC)NC(=O)CNC(=O)[C@H](CC(N)=O)NC(=O)[C@H](CCCNC(=N)N)NC(=O)[C@H](Cc1ccc(O)cc1)NC3=O)C(=O)N[C@@H](C(C)C)C(=O)N[C@@H](Cc1c[nH]c3ccccc13)C(=O)N[C@@H]([C@@H](C)CC)C(=O)N1CCC[C@H]1C(=O)N2 (cyclo(AAIGCSCKNKVCYRNGIPCGESCVWIPCIS); disulfide 5-19, 7-23, 12-28) | 0.8 µM | 1.2 µM | 5.6 µM | > 156 µM | 23%
COc1cccc2c1C(=O)c1c(O)c3c(c(O)c1C2=O)C[C@@](O)(C(=O)CO)C[C@@H]3O[C@H]1C[C@H](N)[C@H](O)[C@H](C)O1 [DOXORUBICIN] | – | – | 0.5 µM | – | –
CC[C@H](C)[C@@H]1NC(=O)[C@H](CO)NC(=O)[C@H](CC(N)=O)NC(=O)[C@H](CCCCN)NC(=O)[C@H](Cc2ccc(O)cc2)NC(=O)[C@@H]2CSSC[C@@H]3NC(=O)[C@@H]4CCCN4C(=O)[C@H]([C@@H](C)CC)NC(=O)[C@H](Cc4c[nH]c5ccccc45)NC(=O)[C@H](C(C)C)NC(=O)[C@@H]4CSSC[C@H](NC(=O)[C@H](CO)NC(=O)[C@H](CSSC[C@H](NC(=O)[C@@H]5CCCN5C1=O)C(=O)NCC(=O)N[C@@H](CCC(=O)O)C(=O)N[C@@H](CO)C(=O)N4)NC(=O)CNC(=O)[C@H](C)NC(=O)[C@H](CC(C)C)NC(=O)[C@H](C)NC(=O)[C@H]([C@@H](C)O)NC(=O)[C@H](C(C)C)NC(=O)[C@H]([C@@H](C)O)NC3=O)C(=O)N[C@@H](CCCCN)C(=O)N[C@@H](CC(N)=O)C(=O)N[C@@H](CCCCN)C(=O)N[C@@H](C(C)C)C(=O)N2 (cyclo(AGCSCKNKVCYKNSIPCGESCVWIPCTVTAL); disulfide 3-17, 5-21, 10-26) | 1.4 µM | 2.3 µM | 7.3 µM | > 78 µM | < 50%
